Experimental findings from ChEMBL document CHEMBL1157539, “Thousands of chemical starting points for antimalarial lead identification” (Nature, 2010) are described below.

SMILES strings stand for the structures.

The test concerns Plasmodium falciparum. Nature of the test: GSK_TCMDC: Inhibition of Plasmodium falciparum 3D7 in whole erythrocytes, using parasite LDH activity as an index of growth. The test is classed as functional, organism-based. Conditions: Plasmodium falciparum, 3D7.
`Clc1ccc(-c2[nH]c3ccccc3c2CN2CCC(N3CCCCC3)CC2)cc1` had an XC50 of 1.06 µM.

Take `CN1CCN(c2ccc(Nc3nccc(-c4c(-c5cccc(NC(=O)c6c(F)cccc6F)c5)nn5ccccc45)n3)cc2)CC1`: the XC50 is 0.112 µM.

Compound `CCCN(CCC)S(=O)(=O)c1ccc(C(=O)N2CCC(C(=O)OCC)CC2)cc1` showed an XC50 of 0.803 µM.

The compound `OC(CNCCc1ccccc1)Cn1c2ccc(Cl)cc2c2cc(Cl)ccc21` (centres undefined) returned an XC50 of 0.733 µM.

Compound `O=C(Nc1ccc2c(c1)CN(Cc1ccc(N3CCCC3)o1)CCC2)c1cncs1` had an XC50 of 1.57 µM.

Compound `Cc1cccc2nc(-c3cccc(-c4ccc(NC(=O)NCc5cccc(F)c5)cc4)c3)[nH]c12` showed an XC50 of 0.237 µM.

Compound `O=C(Nc1ccc(Oc2ccccc2)cc1)N(Cc1ccc(-c2cccc(CN3CCNCC3)c2)cc1)C1CCN(Cc2ccccc2)CC1` registered an XC50 of 0.881 µM.

On to `Cc1cccc2nc(-c3ccc(-c4ccc(CN5CCN(c6ccncc6)CC5)cc4)cc3)[nH]c12`, for which the XC50 worked out at 0.163 µM.

On to `Oc1cccc2ccc(Nc3ccccn3)nc12`, for which the XC50 came to 0.752 µM.

In the case of `CCOc1cc(C(=O)Nc2ccccc2N2CCN(S(C)(=O)=O)CC2)cc(OCC)c1OCC`, the XC50 turned out to be 0.653 µM.

Regarding `CCOC(=O)c1cn(CC)c2cc(F)c(OC3CC4CCC3(C)C4(C)C)cc2c1=O` (centres undefined), the XC50 amounted to 0.928 µM.

`N#Cc1ccc(-c2ccc(OCC(O)CN3CCCN(C(=O)C(c4ccc5c(c4)OCO5)N4CCN(C/C=C/c5ccccc5)CC4)CC3)cc2)cc1` (centres undefined) yielded an XC50 of 0.654 µM.

On to `COc1cc(OC)cc(C(=O)Nc2nc(-c3ccccn3)cs2)c1`, for which the XC50 stood at 0.561 µM.

For `C[C@H](Cc1ccc(S(=O)(=O)c2ccc(C[C@@H](C)NC[C@H](O)c3cccc(Cl)c3)cc2)cc1)NC[C@H](O)c1cccc(Cl)c1`, the XC50 was 0.258 µM.

`Cc1ccc(NC(=O)Nc2ccc(Cl)cc2)cc1-c1cccc(C(=O)Nc2ccc(F)cc2)c1` had an XC50 of 0.735 µM.

For `CCCCc1cc(O)c2c(c1)OC(C)(C)C=C2C1=CCN(Cc2ccccc2)CC1`, the XC50 was 0.247 µM.

`NC1CCN(c2nc(NCCc3ccc(O)cc3)nc(NCc3ccccc3-c3ccccc3)n2)CC1` registered an XC50 of 0.822 µM.

On to `c1cn(-c2ccc(CNc3nccc(Nc4ccc(OCCN5CCOCC5)cc4)n3)cc2)cn1`, for which the XC50 came to 0.878 µM.

For the compound `Cc1cccc2nc(-c3cccc(-c4cccc(NC(=O)Cc5c[nH]cn5)c4)c3)[nH]c12`, the XC50 amounted to 0.675 µM.

In turn, `CN(C)S(=O)(=O)c1ccc(N2CCN(CCC3(c4cccc(F)c4)CCN(C(=O)C(C)(C)C)CC3)CC2)c2nonc12` had an XC50 of 0.697 µM.

`CN1CCC(C(=O)Nc2cccc(-c3cccc(-c4nc5cc(F)ccc5[nH]4)c3)c2)CC1` registered an XC50 of 0.695 µM.

`Cc1ccc2[nH]c(-c3ccccc3N)cc2c1` displayed an XC50 of 0.923 µM.

Consider `Cc1cccc(CN2CCCN(Cc3ccc(C(=O)Nc4ccc(Cl)cc4)cc3)CC2)c1`, for which the XC50 is 0.596 µM.

With `Cn1ccnc1-c1nc2ccccn2c1NCC(=O)Nc1ccccc1N1CCCCC1`, the XC50 turned out to be 0.98 µM.

Consider `O=C(NCC1CC1)C1CCN(C(c2ccccc2)c2cc(F)cc(F)c2)CC1` (centres undefined), for which the XC50 came out at 0.38 µM.

As for `CCCCCCCN1CCC(CC(=O)Nc2ccnc3ccc(OC)cc23)CC1`, the XC50 came out at 0.722 µM.

On to `OC(CNc1ccnc(Nc2cccc(Cl)c2)n1)c1ccccc1C(F)(F)F` (centres undefined), for which the XC50 stood at 0.902 µM.

For the compound `O=C(Nc1cccc(-c2ccc(NCCCN3CCCC3)nc2)c1)c1ccccc1`, the XC50 stood at 0.865 µM.

`O=C(NCCc1ccccc1F)c1ccc(N2CCN(c3ccncc3)CC2)cn1` displayed an XC50 of 1.08 µM.

In turn, `COc1cc(C)nc2ccc(NC(=O)Nc3ccc([N+](=O)[O-])cc3C)cc12` had an XC50 of 0.602 µM.

In turn, `O=C(Nc1ccc2c(c1)CCC2)N[C@H]1CCN(Cc2ccc(OCCCN3CCCCC3)cc2)C1` yielded an XC50 of 0.864 µM.

Consider `COc1ccc(-c2ccc(NC(=O)c3ccccc3)cc2)cc1CN1CCCN(C)CC1`, for which the XC50 was determined as 0.905 µM.

Compound `O=C(Nc1ccc(Cn2ncc(N3CCCNCC3)c(Cl)c2=O)cc1)Nc1ccc(F)cc1[N+](=O)[O-]` had an XC50 of 1.1 µM.

`COc1ccc2nccc([C@@H](O)CN3CCC(NCc4cc5ccccc5nn4)CC3)c2c1` registered an XC50 of 1.2 µM.
